Measurements from patent US10538555B2, “Macrocyclic inhibitors of the PD-1/PD-L1 and CD80(B7-1)/PD-L1 protein/protein interactions” (BRISTOL-MYERS SQUIBB COMPANY, priority 2014, dated 2020).
pIC50: −log10 of the molar value. Where a SMILES comes first, the peptide text is derived from it. Bridges are numbered along the chain shown (N, C = ends). [ ]: non-standard residue; d: D form. The star is where a group is joined. ξ: configuration not given here. Phe(3,4,5-F3) = N[C@@H](Cc1cc(F)c(F)c(F)c1)C(=O)O; Phe(3,4-F2) = N[C@@H](Cc1ccc(F)c(F)c1)C(=O)O; Pro(trans-4-F) = O=C(O)[C@@H]1C[C@@H](F)CN1; NMePhe(4-F) = CN[C@@H](Cc1ccc(F)cc1)C(=O)O; Phe(3-Cl) = N[C@@H](Cc1cccc(Cl)c1)C(=O)O; d(cisHyp) = O=C(O)[C@H]1C[C@@H](O)CN1; Bta = N[C@@H](Cc1csc2ccccc12)C(=O)O; Hyp = O=C(O)[C@@H]1C[C@@H](O)CN1; NMeF = CN[C@@H](Cc1ccccc1)C(=O)O; dNMeF = CN[C@H](Cc1ccccc1)C(=O)O; dPip(4-aza) = O=C(O)[C@H]1CNCCN1; NMeNle = CCCC[C@H](NC)C(=O)O; Pip = O=C(O)[C@@H]1CCCCN1; dPip = O=C(O)[C@H]1CCCCN1; hSer = N[C@@H](CCO)C(=O)O; NMeA = CN[C@@H](C)C(=O)O; Orn = NCCC[C@H](N)C(=O)O; Dab = NCC[C@H](N)C(=O)O; dAze = O=C(O)[C@H]1CCN1; Dap = NC[C@H](N)C(=O)O; Propionyl = CCC(=O)*; ξC = NC(CS)C(=O)O

target: T1, Human PD-L1/PD-1 (Homo sapiens, UniProt Q9NZQ7); assay: HTRF Human PD-L1/PD-1 binding assay (PD-1-Ig/PD-L1-His); conditions: PD-L1-His 10 nM, PD-1-Ig 20 nM; class symbol; read-out: HTRF Human PD-L1/PD-1 Binding Assay IC50 Range
T1 construct: TVMV protease cleavage site (C); made in house; host or cells: HEK293T cells
Method in brief: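 HTRF read-out (665/620 nm ratio) after 30 min equilibration with Eu-cryptate anti-Ig mAb (1 nM) and APC anti-His mAb (20 nM). Peptides preincubated 15 min with PD-L1-His (10 nM), then PD-1-Ig (20 nM) added for 15 min.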

T1 sequence (Q9NZQ7 with tags, fused parts or gaps): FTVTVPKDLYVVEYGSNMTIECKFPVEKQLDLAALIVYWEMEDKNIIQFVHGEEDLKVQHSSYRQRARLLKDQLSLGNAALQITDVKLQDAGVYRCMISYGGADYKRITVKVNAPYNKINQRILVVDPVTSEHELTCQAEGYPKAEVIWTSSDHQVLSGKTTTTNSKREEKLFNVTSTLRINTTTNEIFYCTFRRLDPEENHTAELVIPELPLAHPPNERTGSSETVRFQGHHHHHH

pIC50	SMILES
7.00 to 8.00	CCCC[C@H]1C(=O)N2C[C@H](O)C[C@@H]2C(=O)N[C@@H](CC(=O)O)C(=O)N[C@@H](C(C)C)C(=O)N(C)[C@@H](Cc2ccccc2)C(=O)N[C@@H](CCC(=O)O)C(=O)N2CCNC[C@@H]2C(=O)N[C@@H](Cc2c[nH]c3ccccc23)C(=O)N[C@@H](Cc2ccc(O)cc2)C(=O)N[C@@H](CCCN)C(=O)N[C@H](C(=O)NCC(N)=O)CSCC(=O)N[C@@H](Cc2cccc(Cl)c2)C(=O)N(C)[C@@H](Cc2ccccc2)C(=O)N1C [Example 3647] ({CH2CO}-[Phe(3-Cl)][NMeF][NMeNle][d(cisHyp)]DV[NMeF]E[dPip(4-aza)]WY[Orn]CG-NH2; thioether N-13)
7.00 to 8.00	CCCC[C@H]1C(=O)N(C)[C@@H](CCCC)C(=O)N[C@@H](CCCNC(=O)CC)C(=O)N[C@H](C(=O)NCC(N)=O)CSCC(=O)N[C@@H](Cc2ccc(OC)cc2)C(=O)N(C)[C@@H](C)C(=O)N[C@@H](CC(N)=O)C(=O)N2CCC[C@H]2C(=O)N[C@@H](CC(N)=O)C(=O)N[C@@H](CC(C)C)C(=O)N2C[C@H](F)C[C@H]2C(=O)N[C@@H](Cc2c[nH]c3ccccc23)C(=O)N[C@@H](C)C(=O)N[C@@H](Cc2c[nH]c3ccccc23)C(=O)N1C [Example 7083] ({CH2CO}-Y(Me)[NMeA]NPNL[Pro(trans-4-F)]WAW[NMeNle][NMeNle][Orn](Propionyl)CG-NH2; thioether N-14)
8.00 to 9.00	CCCC[C@H]1C(=O)N2C[C@H](O)C[C@@H]2C(=O)N[C@@H](CC(=O)O)C(=O)N[C@@H](C(C)C)C(=O)N(C)[C@H](Cc2ccccc2)C(=O)N[C@@H](CCN)C(=O)N2C[C@H](O)C[C@@H]2C(=O)N[C@@H](Cc2c[nH]c3ccccc23)C(=O)N[C@@H](Cc2ccc(O)cc2)C(=O)N[C@@H](CC(C)C)C(=O)N[C@H](C(=O)NCC(N)=O)CSCC(=O)N[C@@H](Cc2ccc(F)c(F)c2)C(=O)N(C)[C@@H](Cc2ccccc2)C(=O)N1C [Example 9299] ({CH2CO}-[Phe(3,4-F2)][NMeF][NMeNle][d(cisHyp)]DV[dNMeF][Dab][d(cisHyp)]WYLCG-NH2; thioether N-13)
8.00 to 9.00	CCCC[C@H]1C(=O)N2C[C@H](O)C[C@@H]2C(=O)N[C@@H](CC(=O)O)C(=O)N[C@@H](C(C)C)C(=O)N(C)[C@@H](Cc2ccccc2)C(=O)N[C@@H](Cc2ccc(O)cc2)C(=O)N2CCNC[C@@H]2C(=O)N[C@@H](Cc2c[nH]c3ccccc23)C(=O)N[C@@H](Cc2ccc(O)cc2)C(=O)N[C@@H](CC(C)C)C(=O)N[C@H](C(=O)NCC(N)=O)CSCC(=O)N[C@@H](Cc2cc(F)c(F)c(F)c2)C(=O)N(C)[C@@H](Cc2ccccc2)C(=O)N1C [Example 10168] ({CH2CO}-[Phe(3,4,5-F3)][NMeF][NMeNle][d(cisHyp)]DV[NMeF]Y[dPip(4-aza)]WYLCG-NH2; thioether N-13)
7.00 to 8.00	CCCC[C@H]1C(=O)N2C[C@H](O)C[C@@H]2C(=O)N2C[C@H](O)C[C@H]2C(=O)N[C@@H](C(C)C)C(=O)N(C)[C@@H](Cc2ccccc2)C(=O)N[C@@H](CCC(=O)O)C(=O)N2CCCC[C@@H]2C(=O)N[C@@H](Cc2c[nH]c3ccccc23)C(=O)N[C@@H](Cc2ccc(O)cc2)C(=O)N[C@@H](CCCN)C(=O)N[C@H](C(=O)NCC(N)=O)CSCC(=O)N[C@@H](Cc2cc(F)c(F)c(F)c2)C(=O)N(C)[C@@H](Cc2ccccc2)C(=O)N1C [Example 3228] ({CH2CO}-[Phe(3,4,5-F3)][NMeF][NMeNle][d(cisHyp)][Hyp]V[NMeF]E[dPip]WY[Orn]CG-NH2; thioether N-13)
8.00 to 9.00	CCCC[C@H]1C(=O)N2C[C@H](O)C[C@@H]2C(=O)N[C@@H](CC(=O)O)C(=O)N[C@@H](C(C)C)C(=O)N(C)[C@@H](Cc2ccccc2)C(=O)N[C@@H](CCC(=O)O)C(=O)N2CC[C@@H]2C(=O)N[C@@H](Cc2c[nH]c3ccccc23)C(=O)N[C@@H](Cc2ccc(O)cc2)C(=O)N[C@@H](CCCN)C(=O)N[C@H](C(=O)NCC(N)=O)CSCC(=O)N[C@@H](Cc2cc(F)c(F)c(F)c2)C(=O)N(C)[C@@H](Cc2ccccc2)C(=O)N1C [Example 3644] ({CH2CO}-[Phe(3,4,5-F3)][NMeF][NMeNle][d(cisHyp)]DV[NMeF]E[dAze]WY[Orn]CG-NH2; thioether N-13)
8.00 to 9.00	CCCC[C@H]1C(=O)N(C)[C@@H](CCCC)C(=O)N[C@@H](CCC(=O)O)C(=O)N[C@H](C(=O)NCC(N)=O)CSCC(=O)N[C@@H](Cc2ccc(O)cc2)C(=O)N2CCCC[C@H]2C(=O)N[C@@H](CC(N)=O)C(=O)N2CCC[C@H]2C(=O)N[C@@H](CN)C(=O)N[C@@H](CCC(=O)O)C(=O)N2C[C@H](O)C[C@H]2C(=O)N[C@@H](Cc2c[nH]c3ccccc23)C(=O)N[C@@H](CCN)C(=O)N[C@@H](Cc2c[nH]c3ccccc23)C(=O)N1C [Example 1526] ({CH2CO}-Y[Pip]NP[Dap]E[Hyp]W[Dab]W[NMeNle][NMeNle]ECG-NH2; thioether N-14)
8.00 to 9.00	CCCC[C@H]1C(=O)N2CCC[C@@H]2C(=O)N[C@@H](CC(=O)O)C(=O)N[C@@H](C(C)C)C(=O)N(C)[C@@H](Cc2ccccc2)C(=O)N[C@@H](CCC(=O)O)C(=O)N2CCCC[C@@H]2C(=O)N[C@@H](Cc2c[nH]c3ccccc23)C(=O)N[C@@H](Cc2ccc(O)cc2)C(=O)N[C@@H](CO)C(=O)N[C@H](C(=O)NCC(N)=O)CSCC(=O)N[C@@H](Cc2cc(F)c(F)c(F)c2)C(=O)N(C)[C@@H](Cc2ccc(F)cc2)C(=O)N1C [Example 10565] ({CH2CO}-[Phe(3,4,5-F3)][NMePhe(4-F)][NMeNle][dP]DV[NMeF]E[dPip]WYSCG-NH2; thioether N-13)
5.00 to 6.00	CCCC[C@H]1C(=O)N[C@@H](CC(N)=O)C(=O)N2CCC[C@H]2C(=O)N[C@@H](CO)C(=O)N[C@@H](CCO)C(=O)N2CCC[C@H]2C(=O)N[C@@H](Cc2c[nH]c3ccccc23)C(=O)N[C@@H](CO)C(=O)N[C@@H](Cc2c[nH]c3ccccc23)C(=O)N(C)[C@@H](C)C(=O)N(C)[C@@H](C)C(=O)N[C@@H](CCCN)C(=O)NC(C(=O)NCC(N)=O)CSCC(=O)N[C@@H](Cc2ccc(O)cc2)C(=O)N1C (stereo partly drawn) [Example 10210] ({CH2CO}-Y[NMeNle]NPS[hSer]PWSW[NMeA][NMeA][Orn][ξC]G-NH2; thioether N-14)
8.00 to 9.00	CCCC[C@H]1C(=O)N(C)[C@@H](CCCC)C(=O)N[C@@H](CCCN)C(=O)N[C@H](C(=O)NCC(N)=O)CSCC(=O)N[C@@H](Cc2ccc(O)cc2)C(=O)N2CCOCC2C(=O)N[C@@H](CC(N)=O)C(=O)N2CCC[C@H]2C(=O)N[C@@H](Cc2c[nH]cn2)C(=O)N[C@@H](CC(C)C)C(=O)N2C[C@H](O)C[C@H]2C(=O)N[C@@H](Cc2c[nH]c3ccccc23)C(=O)N[C@@H](CO)C(=O)N[C@@H](Cc2c[nH]c3ccccc23)C(=O)N1C (stereo partly drawn) [Example 1532]
8.00 to 9.00	CCCC[C@H]1C(=O)N(C)[C@@H](CCCC)C(=O)N[C@@H](CCC(=O)O)C(=O)N[C@H](C(=O)NCC(N)=O)CSCC(=O)N[C@@H](Cc2ccc(O)cc2)C(=O)N2CCCC[C@H]2C(=O)N[C@@H](CC(=O)O)C(=O)N2CCC[C@H]2C(=O)N[C@@H](CO)C(=O)N[C@@H](CCC(N)=O)C(=O)N2C[C@H](O)C[C@H]2C(=O)N[C@@H](Cc2c[nH]c3ccccc23)C(=O)N[C@@H](CO)C(=O)N[C@@H](Cc2csc3ccccc23)C(=O)N1C [Example 1506] ({CH2CO}-Y[Pip]DPSQ[Hyp]WS[Bta][NMeNle][NMeNle]ECG-NH2; thioether N-14)
7.00 to 8.00	CCCC[C@H]1C(=O)N(C)[C@@H](CCCC)C(=O)N[C@@H](CC(C)C)C(=O)NC(C(=O)NCC(N)=O)CSCC(=O)N[C@@H](Cc2ccc(O)cc2)C(=O)N(C)[C@@H](C)C(=O)N[C@@H](CC(N)=O)C(=O)N2CCC[C@H]2C(=O)N[C@@H](CC(N)=O)C(=O)N[C@@H](CC(C)C)C(=O)N2CCC[C@H]2C(=O)N[C@@H](Cc2csc3ccccc23)C(=O)N[C@@H](CO)C(=O)N[C@@H](Cc2c[nH]c3ccccc23)C(=O)N1C (stereo partly drawn) [Example 9160] ({CH2CO}-Y[NMeA]NPNLP[Bta]SW[NMeNle][NMeNle]L[ξC]G-NH2; thioether N-14)
8.00 to 9.00	CCCC[C@H]1C(=O)N(C)[C@@H](CCCC)C(=O)N[C@@H](CCC(=O)O)C(=O)N[C@H](C(=O)NCC(N)=O)CSCC(=O)N[C@@H](Cc2ccc(O)cc2)C(=O)N(C)[C@@H](C)C(=O)N[C@@H](CC(N)=O)C(=O)N2CCC[C@H]2C(=O)N[C@@H](CO)C(=O)N[C@@H](CCC(=O)O)C(=O)N2C[C@H](O)C[C@H]2C(=O)N[C@@H](Cc2c[nH]c3ccccc23)C(=O)N[C@@H](CO)C(=O)N[C@@H](Cc2c[nH]c3ccccc23)C(=O)N1C [Example 5205] ({CH2CO}-Y[NMeA]NPSE[Hyp]WSW[NMeNle][NMeNle]ECG-NH2; thioether N-14)

same assay, conditions: PD-L1-His 10 nM, PD-1-Ig 20 nM; read-out: HTRF Human PD-L1/PD-1 Binding Assay IC50

pIC50	SMILES
8.59	CCCC[C@H]1C(=O)N(C)[C@@H](CCCC)C(=O)N[C@@H](C)C(=O)N[C@H](C(=O)NCC(N)=O)CSCC(=O)N[C@@H](Cc2ccc(O)cc2)C(=O)N2CCCC[C@H]2C(=O)N[C@@H](CC(N)=O)C(=O)N2CCC[C@H]2C(=O)N[C@@H](Cc2cnc[nH]2)C(=O)N[C@@H](CCC(N)=O)C(=O)N2C[C@H](O)C[C@H]2C(=O)N[C@@H](Cc2c[nH]c3ccccc23)C(=O)N[C@@H](CO)C(=O)N[C@@H](Cc2c[nH]c3ccccc23)C(=O)N1C [Example 1255]
6.52	CCCC[C@H]1C(=O)N(C)[C@@H](CCCC)C(=O)N[C@@H](CCCN)C(=O)N[C@H](C(=O)NCC(N)=O)CSCC(=O)N[C@@H](Cc2ccc(OC)cc2)C(=O)N(C)[C@@H](C)C(=O)N[C@@H](CCN)C(=O)N2CCC[C@H]2C(=O)N[C@@H](Cc2cnc[nH]2)C(=O)N[C@@H](CCCCN)C(=O)N2C[C@H](O)C[C@H]2C(=O)N[C@@H](Cc2c[nH]c3ccccc23)C(=O)N[C@@H](CC(=O)O)C(=O)N[C@@H](Cc2c[nH]c3ccccc23)C(=O)N1C [Example 7107] ({CH2CO}-Y(Me)[NMeA][Dab]PHK[Hyp]WDW[NMeNle][NMeNle][Orn]CG-NH2; thioether N-14)
